According to PubChem BioAssay AID330 (DTP/NCI, 2004):
Values joined by “and” are separate entries in the source; they are usually repeats but may differ in a detail not shown here. Identical values can stand only once. Inconclusive results and toxic doses are left out. The calls were made as follows: active = survival T/C of 150% or more; inactive = T/C below 125% in these data.

System: P388 leukemia ip, CD2F1 mice, survival T/C
Assay: NCI In Vivo Anticancer Drug Screen. Data for tumor model P388 Leukemia (intraperitoneal) in CD2F1 (CDF1) mice
Settings: endpoint: median survival time, higher = longer survival
In short: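 Mice carrying the transplanted tumor received test compound or vehicle. Survival was recorded in each group, and the value is the treated-group measurement divided by that of the vehicle-treated control group.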

[1] = dose: 60.0 mg/kg/injection, schedule: Q01DX005 (ip), vehicle: saline
[2] = dose: 120.0 mg/kg/injection, schedule: Q01DX005 (ip), vehicle: saline
[3] = dose: 240.0 mg/kg/injection, schedule: Q01DX005 (ip), vehicle: saline
[4] = dose: 50.0 mg/kg/injection, schedule: Q01DX009 (ip), vehicle: Klucel (hydroxypropylcellulose) (HPC)
[5] = dose: 100.0 mg/kg/injection, schedule: Q01DX009 (ip), vehicle: Klucel (hydroxypropylcellulose) (HPC)
[6] = dose: 200.0 mg/kg/injection, schedule: Q01DX009 (ip), vehicle: Klucel (hydroxypropylcellulose) (HPC)
[7] = dose: 12.5 mg/kg/injection, schedule: Q01DX009 (ip), vehicle: saline
[8] = dose: 25.0 mg/kg/injection, schedule: Q01DX009 (ip), vehicle: saline
[9] = dose: 50.0 mg/kg/injection, schedule: Q01DX009 (ip), vehicle: saline
[10] = dose: 60.0 mg/kg/injection, schedule: Q01DX005 (ip), vehicle: saline with Tween-80
[11] = dose: 120.0 mg/kg/injection, schedule: Q01DX005 (ip), vehicle: saline with Tween-80
[12] = dose: 240.0 mg/kg/injection, schedule: Q01DX005 (ip), vehicle: saline with Tween-80
[13] = dose: 60.0 mg/kg/injection, schedule: Q01DX005 (ip), vehicle: Klucel (hydroxypropylcellulose) (HPC)
[14] = dose: 120.0 mg/kg/injection, schedule: Q01DX005 (ip), vehicle: Klucel (hydroxypropylcellulose) (HPC)
[15] = dose: 240.0 mg/kg/injection, schedule: Q01DX005 (ip), vehicle: Klucel (hydroxypropylcellulose) (HPC)

Measured: T/C

CN=C(NC)c1ccc(NC(=O)c2cc(C)cc(C(=O)Nc3ccc(C(=NC)NC)cc3)c2)cc1
inactive: dose: 3.12 mg/kg/injection, schedule: Q01DX005 (ip), vehicle: saline with Tween-80 103 % of control | dose: 6.25 mg/kg/injection, schedule: Q01DX005 (ip), vehicle: saline with Tween-80 105 % of control | dose: 12.5 mg/kg/injection, schedule: Q01DX005 (ip), vehicle: saline with Tween-80 107 % of control

N#Cc1ccccc1S(=O)(=O)O
inactive: dose: 100.0 mg/kg/injection, schedule: Q01DX001 (ip), vehicle: saline with Tween-80 96 % of control | dose: 200.0 mg/kg/injection, schedule: Q01DX001 (ip), vehicle: saline with Tween-80 90 % of control | dose: 400.0 mg/kg/injection, schedule: Q01DX001 (ip), vehicle: saline with Tween-80 102 % of control

COC(=O)CCC(N)C(=O)NC(Cc1ccccc1)C(=O)NC(C)C(=O)NC1C(O)OC(CO)C(O)C1O (stereo unspecified)
inactive: [1] 99 % of control | [2] 98 % of control | [3] 99 % of control

CCCCCCCC/C=C/CCCCCCCC(=O)N(CCOC(=O)C(C)(C)C)CCOC(=O)C(C)(C)C
inactive: [4] 104 % of control | [5] 112 % of control | [6] 111 % of control

CCOP1(=O)N(C)CCN1C
inactive: [7] 117 % of control | [8] 111 % of control | [9] 101 % of control

O=C(/C=N/O)Nc1cccnc1
inactive: [4] 109 % of control | [5] 109 % of control | [6] 109 % of control

Cn1ccc(=O)n(C)c1=O
inactive: dose: 100.0 mg/kg/injection, schedule: Q04DX002 (ip), vehicle: saline 107 % of control | dose: 200.0 mg/kg/injection, schedule: Q04DX002 (ip), vehicle: saline 107 % of control | dose: 400.0 mg/kg/injection, schedule: Q04DX002 (ip), vehicle: saline 109 % of control

CCCCCC(=O)C(C)(c1nc2n(c1O)/C(=N/C(=O)Nc1ccc(Cl)cc1)N=N2)c1nc2n(c1O)/C(=N/C(=O)Nc1ccc(Cl)cc1)N=N2
inactive: [10] 89 % of control | [11] 88 % of control | [12] 86 % of control

COC1c2ccccc2CC(c2ccccc2)=NN1C(C)=O (stereo unspecified)
inactive: [1] 100 % of control | [2] 102 % of control | [3] 97 % of control

CCOC(=O)CC1(O)CS/C(=C(\C#N)C(=O)OCC)N1c1ccccc1 (stereo unspecified)
inactive: dose: 50.0 mg/kg/injection, schedule: Q01DX005 (ip), vehicle: saline with Tween-80 96 % of control | dose: 100.0 mg/kg/injection, schedule: Q01DX005 (ip), vehicle: saline with Tween-80 100 % of control | dose: 200.0 mg/kg/injection, schedule: Q01DX005 (ip), vehicle: saline with Tween-80 96 % of control

CC(=O)CC(C)c1ccc(C(C)CC(C)=O)o1 (stereo unspecified)
inactive: [10] 104 % of control | [11] 106 % of control | [12] 104 % of control

Cn1nc(C(N)=O)c2c(N)ncnc21
inactive: dose: 0.94 mg/kg/injection, schedule: Q01DX005 (ip), vehicle: saline with Tween-80 105 % of control | dose: 1.88 mg/kg/injection, schedule: Q01DX005 (ip), vehicle: saline with Tween-80 92 % of control | dose: 3.75 mg/kg/injection, schedule: Q01DX005 (ip), vehicle: saline with Tween-80 104 % of control | dose: 7.5 mg/kg/injection, schedule: Q01DX005 (ip), vehicle: saline with Tween-80 91 % of control

Cc1ccccc1C1OC(N)=C(O)C1=O (stereo unspecified)
inactive: [13] 93 % of control | [14] 93 % of control | [15] 90 % of control

C=CCN(CC=C)CCN1CCN(CCCN2c3ccccc3Sc3ccc(C(F)(F)F)cc32)CC1
inactive: dose: 12.5 mg/kg/injection, schedule: Q04DX003 (ip), vehicle: saline 101 % of control and 103 % of control | dose: 25.0 mg/kg/injection, schedule: Q04DX003 (ip), vehicle: saline 111 % of control and 112 % of control | dose: 50.0 mg/kg/injection, schedule: Q04DX003 (ip), vehicle: saline 104 % of control and 107 % of control | dose: 100.0 mg/kg/injection, schedule: Q04DX003 (ip), vehicle: saline 100 % of control and 102 % of control

Nc1cc(Cl)ccc1C(=O)c1ccccc1Cl
inactive: [10] 102 % of control | [11] 100 % of control | [12] 93 % of control

O=C(CCCCCCCCc1ccc(O)cc1)c1c(O)cccc1O
inactive: dose: 6.5 mg/kg/injection, schedule: Q01DX009 (ip), vehicle: Klucel (hydroxypropylcellulose) (HPC) 101 % of control | dose: 13.0 mg/kg/injection, schedule: Q01DX009 (ip), vehicle: Klucel (hydroxypropylcellulose) (HPC) 108 % of control | dose: 26.0 mg/kg/injection, schedule: Q01DX009 (ip), vehicle: Klucel (hydroxypropylcellulose) (HPC) 95 % of control | dose: 52.0 mg/kg/injection, schedule: Q01DX009 (ip), vehicle: Klucel (hydroxypropylcellulose) (HPC) 105 % of control

CC(=O)NS(=O)(=O)c1ccc(N=CC2C(=O)N(c3ccccc3)N(c3ccccc3)C2=O)cc1
inactive: dose: 25.0 mg/kg/injection, schedule: Q01DX001 (ip), vehicle: Klucel (hydroxypropylcellulose) (HPC) 86 % of control | dose: 50.0 mg/kg/injection, schedule: Q01DX001 (ip), vehicle: Klucel (hydroxypropylcellulose) (HPC) 91 % of control | dose: 100.0 mg/kg/injection, schedule: Q01DX001 (ip), vehicle: Klucel (hydroxypropylcellulose) (HPC) 92 % of control

CSc1ccc(NC(=O)Nc2nccs2)cc1
inactive: dose: 100.0 mg/kg/injection, schedule: Q04DX003 (ip), vehicle: saline with Tween-80 95 % of control | dose: 200.0 mg/kg/injection, schedule: Q04DX003 (ip), vehicle: saline with Tween-80 100 % of control | dose: 400.0 mg/kg/injection, schedule: Q04DX003 (ip), vehicle: saline with Tween-80 90 % of control

CCCCc1[nH]nc(-c2n[nH]c(CCCC)c2C)c1C
inactive: [10] 95 % of control | [11] 100 % of control | [12] 108 % of control

CCCCCCCCCCCCCCCCN1c2ccccc2C(C)(C)C12C=Cc1cccc([N+](=O)[O-])c1O2 (stereo unspecified)
inactive: dose: 50.0 mg/kg/injection, schedule: Q01DX009 (ip), vehicle: saline with Tween-80 92 % of control | dose: 100.0 mg/kg/injection, schedule: Q01DX009 (ip), vehicle: saline with Tween-80 93 % of control | dose: 200.0 mg/kg/injection, schedule: Q01DX009 (ip), vehicle: saline with Tween-80 88 % of control

CCC1OC(O)C=CC1=O (stereo unspecified)
inactive: dose: 1.5 mg/kg/injection, schedule: Q01DX005 (ip), vehicle: saline 99 % of control | dose: 3.0 mg/kg/injection, schedule: Q01DX005 (ip), vehicle: saline 93 % of control

CCCC(N)P(=O)(O)O (stereo unspecified)
inactive: [9] 99 % of control | dose: 100.0 mg/kg/injection, schedule: Q01DX009 (ip), vehicle: saline 93 % of control | dose: 200.0 mg/kg/injection, schedule: Q01DX009 (ip), vehicle: saline 96 % of control | dose: 400.0 mg/kg/injection, schedule: Q01DX009 (ip), vehicle: saline 93 % of control

COc1cc(N2C(N)=NC(N)=NC2(C)C)cc(OC)c1OC
inactive: dose: 6.25 mg/kg/injection, schedule: Q01DX009 (ip), vehicle: saline 100 % of control | [7] 95 % of control | [8] 90 % of control

COc1ccc(C(C)c2cc3c(cc2OC(C)O)OCO3)cc1 (stereo unspecified)
inactive: [10] 92 % of control | [11] 94 % of control | [12] 97 % of control

CCOC(=O)C(CC)/C(C)=N\NC(N)=S (stereo unspecified)
inactive: [13] 100 % of control | [14] 101 % of control | [15] 99 % of control

CC(C)(CO)NC(=O)c1ccc(Br)cc1
inactive: dose: 25.0 mg/kg/injection, schedule: Q01DX009 (ip), vehicle: other 100 % of control | dose: 50.0 mg/kg/injection, schedule: Q01DX009 (ip), vehicle: other 100 % of control | dose: 100.0 mg/kg/injection, schedule: Q01DX009 (ip), vehicle: other 104 % of control | dose: 200.0 mg/kg/injection, schedule: Q01DX009 (ip), vehicle: other 100 % of control | dose: 400.0 mg/kg/injection, schedule: Q01DX009 (ip), vehicle: other 104 % of control

Cn1c(=O)c2nc(-c3ccccc3)nnc2n(C)c1=O
inactive: dose: 100.0 mg/kg/injection, schedule: Q04DX003 (ip), vehicle: Klucel (hydroxypropylcellulose) (HPC) 102 % of control | dose: 200.0 mg/kg/injection, schedule: Q04DX003 (ip), vehicle: Klucel (hydroxypropylcellulose) (HPC) 103 % of control | dose: 400.0 mg/kg/injection, schedule: Q04DX003 (ip), vehicle: Klucel (hydroxypropylcellulose) (HPC) 115 % of control
